According to patent publication EP4463162B1, “CONNEXIN 43 FOR USE IN TREATING BRCA1/2-MUTATED CANCER” (Fundación Profesor Novoa Santos, priority 2022, dated 2023):
Read-outs that look alike come from different tables or passages of the source.

Assays:
[1] = system: poly(ADP-ribose) (PAR) polymer; assay: Global protein PARylation, western blot and immunofluorescence; format: cell-based, human; settings: 48 and 96 h, western blot
Experimental: 2 000-10 000 cells were plated on glass coverslips (Thermo Fisher Scientific) previously coated with poly-D-lysine hydrobromide (Sigma-Aldrich) and cultured until they were approximately 80 % confluent. They were washed with PBS, fixed with 4 % paraformaldehyde (PFA, Sigma-Aldrich) in PBS for 15 min at room temperature and rinsed twice with PBS. Next, cells were incubated with 0.1 M glycine (Sigma-Aldrich) in distilled water to quench PFA for 10 min at room temperature, and then their membranes were permeabilized with 0.2 % Triton X-100 (Sigma-Aldrich) in PBS for 10 min at room temperature. After two 5 min PBS washes, potential nonspecific antibody binding sites were blocked with 1 % bovine serum albumin (BSA; Sigma-Aldrich) diluted in PBST (PBS+0.1 % Tween 20; Sigma-Aldrich) for 30 min at room temperature. Cells were incubated overnight at 4 °C in the dark with primary antibody (see references in Table 3) diluted in 1 % BSA in PBST. […]
Protein extracts were mixed with loading buffer, which consisted of 10 % (v/v) β-mercaptoethanol (Sigma-Aldrich), 10 % SDS, 50 % (v/v) glycerol, 200 mM Tris-HCl pH 6.8 and 0.1 % bromophenol blue (Sigma-Aldrich). […] Ponceau staining and western blot images were analysed and their band intensities quantitated with Image J software. […]

[2] = system: control empty vector (EV) HCC1937 cells; assay: 48 h olaparib dose-response curve, cell viability; format: cell-based; settings: Homo sapiens, HCC1937, 48 h
[3] = system: p21; assay: Western blot against senescence marker p21; format: cell-based, human; settings: Cx43_HCC1937, 96 h, 100 µM olaparib
Experimental: Protein extracts were mixed with loading buffer, which consisted of 10 % (v/v) β-mercaptoethanol (Sigma-Aldrich), 10 % SDS, 50 % (v/v) glycerol, 200 mM Tris-HCl pH 6.8 and 0.1 % bromophenol blue (Sigma-Aldrich). They were boiled at 95 °C for 8 min and 20-30 µg protein were loaded into 8, 10 or 15 % acrylamide/bis-acrylamide self-made gels, depending on the molecular weight of the target protein/s to investigate. Gels were run at 80 V for approximately 2 h using a Mini-PROTEAN Tetra electrophoresis system (BioRad), and then transferred to methanol-preactivated polyvinylidene fluoride (PVDF) membranes (Millipore) at 100 V and 4 °C for 1-1.5 h with a Mini Trans-Blot Electrophoretic Transfer Cell (BioRad). Afterwards, membranes with the transferred proteins were stained with ATX Ponceau S red staining solution (Sigma-Aldrich) for 10 min at room temperature, photographed in an Amersham Imager 600 (GE Healthcare) and unstained with distilled water. They were then blocked for 1 h at room temperature with 5 % skim milk (Sigma-Aldrich) diluted in TBST buffer (Tris-buffered saline TBS composed of 20 mM Tris and 150 mM NaCl, supplemented with 0.05 % (v/v) Tween-20, Sigma-Aldrich) with shaking. […] Ponceau staining and western blot images were analysed and their band intensities quantitated with Image J software. […]

[4] = system: cleaved caspase 3, PARP-1; settings: 50 and 100 µM olaparib

For O=C(c1cc(Cc2n[nH]c(=O)c3ccccc23)ccc1F)N1CCN(C(=O)C2CC2)CC1 [Olaparib, olaparib], the PAR levels ([1]; Cx43_HCC1937, 50/100 µM olaparib) was “decreased”, the PAR levels ([1]; EV_HCC1937, 50/100 µM olaparib) was “rose” and the IC50 [2] was 602 µM. The “senescence marker p21” value [3] was “significantly increased”, the PARP-1 cleavage ([4]; Cx43_HCC1937, 96 h) was “strong PARP-1 cleavage” and the PARP-1 cleavage ([4]; EV_HCC1937, 96 h) was “low cleavage levels”.
